Measured values as given in patent US20120288482A1, “THERAPEUTIC AGENT (Y-39983) FOR CORNEAL ENDOTHELIAL DYSFUNCTION” (priority 2009, published 2012).

What was measured:
[1] = test system: corneal endothelial wound; assay: Rabbit corneal endothelial wound model, topical instillation (Example 1); format: in vivo; conditions: for area of the unrepaired wound site (corneal endothelium wound area): 6 times a day, 46 hours after wound creation
Procedure: In this Example, 0.95 mM (0.03 w/v%) compound (I) instillation and 0.32 mM (0.01 w/v%) compound (I) instillation obtained by diluting the above instillation with the above-mentioned vehicle were used.
As a positive control substances, Y-27632 dihydrochloride (Wako Pure Chemical Industries, Co., Ltd., Cat. #253-00513) and fasudil hydrochloride hydrate injection (Eril (registered trade mark) drip intravenous injection, Asahi Kasei Pharma) were purchased, and Y-27632 and Fasudil were each adjusted to 10 mM with phosphate-buffered saline (PBS, Invitrogen, Cat. #14190). In addition, PBS was used as a negative control substance.
Male Japanese white rabbits (body weight 2.5-3.0 kg, 21 rabbits) were purchased from Biotek Co., Ltd. and used. They are kept in individual cages at 23±3° C. temperature, at 55±10% humidity and 12 hours artificial light cycle (lighting on; 8:00 a.m., lighting off; 8:00 p.m.). One hundred grams of solid food (Labo R stock; Nosan Corp.) are provided daily to each animal. Water is supplied by automatic watering apparatus.
3. Excision of Nictitating Membrane of Animal Before starting the test, the nictitating membrane of both eyes of the animal was excised. To be specific, each animal was set in a positioner, and the ocular surface was topically anesthetized by instillation of a topical anesthesia (Benoxil instillation 0.4%, Santen Pharmaceutical Co., Ltd.). Then, the root position of the nictitating membrane was pressed with a clamp for 30 sec, and compressing mark was cut with scissors. After excision of the nictitating membrane, the antibiotic ointment (tarivid eye ointment, Santen Pharmaceutical Co., Ltd.) was instilled to prevent infection. After 4 days from the excision of the nictitating membrane, animals confirmed to have no abnormality in the external eye including the excised site were used.
The corneal thickness of the right eye of each animal was measured with an ultrasonic pachymeter (manufactured by DGH Technologies Inc., DGH-500), and the animals were divided into 4 groups such that the corneal thickness of each group was equal. The animals used for each group were as follows. • 10 mM Y-27632 group=5 eyes • 0.32 mM compound (I) group=5 eyes • 0.95 mM compound (I) group=6 eyes • 10 mM Fasudil group=5 eyes • PBS group=21 eyes (left eye)
The animals were sytemically anesthetized by intramuscular administration of Ketalar muscular injection ([…], DAIICHI SANKYO COMPANY, LIMITED., 0.6 ml) and Celactal 2% Injection (Bayer, Ltd., 0.25 ml). Then, Benoxil instillation 0.4% (Santen Pharmaceutical Co., Ltd., one drop) was instilled and the eye was opened using a lid speculum.
A 7-mm diameter stainless dowel that had been cooled in liquid nitrogen was placed on the central cornea of both eyes of 21 animals for 15 sec. to produce an ice ball in the anterior chamber and dissociate corneal endothelial cells, whereby a corneal endothelial wound was produced.
For topical instillation, after wound creation, compound (I) instillation, Y-27632 instillation or Fasudil instillation was instilled to the right eye, and PBS was instilled to the left eye 6 times a day (4 times on the day of wound production) at 50 μL per instillation. Administration interval in one day was 2 hours. […]

[2] = test system: rabbit corneal endothelial cells; assay: Production of cultured corneal endothelial cell sheet for transplantation, ZO-1 and Na+/K+ ATPase immunostaining (Example 7); format: cell-based; conditions: for coverage of the sheet with cells / expression of Na+/K+ ATPase / expression of ZO-1: 48 hours after seeding
Procedure: In this Example, rabbit corneal endothelial cells prepared in the same manner as in Example 4 were used.
In this Example, moreover, test substances and control substance prepared in the same manner as in Example 4 were used.
The rabbit corneal endothelial cells were seeded on Vitrigel™ (Asahi Glass) at a division ratio of 1:1, and a cultured corneal endothelial cell sheet for transplantation was produced. When producing the corneal endothelial cell sheet, 0.95 μM compound (I), 10 μM Y-27632 or 0.04% DMSO was added. The obtained corneal endothelial cell sheet was subjected to fluorescence immunostaining with ZO-1 and Na^+/K^+ ATPase, which are functional proteins of corneal endothelial cells, and expression was confirmed.
The corneal endothelial cell sheet was fixed with 95% ethanol (−30° C.) for 10 min, washed with PBS, and treated with 0.5% Triton X-100/PBS for 5 min. Then, it was treated with 1% BSA/PBS for 1 hour, and treated overnight with anti-ZO-1 antibody (Invitrogen, Cat. #339100) or anti-Na^+/K^+ ATPase antibody (Millipore, Cat. #C464.6). After washing with PBS, it was treated with Alexa-488 labeling secondary antibody for 1 hour. After washing with PBS, mounting medium (Vectashield (registered trade mark)) containing DAPI was added dropwise to the sheet, and the sheet was sealed with cover glass. The image was taken with a fluorescence microscope to confirm expression of ZO-1 and Na^+/K^+ ATPase. The immunostaining was performed both 48 hours and 14 days after the seeding (FIG. 10 and FIG. 11).

[3] = test system: cultured corneal endothelial cells; conditions: cited from earlier work
corneoscleral tissues = assay: Cell death suppression in cornea preserved in corneal storage solution (Example 10); format: cell-based, rabbit; conditions: 4° C.
Procedure: In this Example, test substances and control substances prepared in the same manner as in Example 4 were used. Both right and left eyeballs of 5 male Japanese white rabbits (Biotek Co., Ltd.) were removed, and corneoscleral tissues were prepared. One corneoscleral tissue was placed in a storage solution Optisol-GS (registered trade mark) (Bausch & Lomb, Inc) (control), and the other corneoscleral tissue was placed in Optisol-GS containing 0.95 μM compound (I). Similarly, corneoscleral tissues were prepared from another 5 male Japanese white rabbits, one corneoscleral tissue was placed in Optisol-GS (control), and the other corneoscleral tissue was placed in Optisol-GS containing 10 μM Y-27632. The samples containing each corneoscleral tissue were preserved at 4° C. Two or three weeks later, the corneoscleral tissues were stained with Hoechst (Hoechst 33342, Sigma, Cat. #B2261), PI (propidium iodide, Sigma, Cat. #P4170) and Annexin V (Annexin V-FITC, MBL, Cat. #4700-100), and the cells therein were indentified as living cells, dead cells and apoptotic cells. In addition, the various cells in the stained cornea were counted using ImageJ (ver.1.44i, NIH, http://imagej.nih.gov/ij), and the mean value and the standard deviation of 5 visual fields were determined. The various cell counts were statistically analyzed by the student's t-test.

| Structure (SMILES) | area of the unrepaired wound site (corneal endothelium wound area) ([1]; 10 mM instillation) | coverage of the sheet with cells ([2]; 10 μM) | expression of Na+/K+ ATPase ([2]; 10 μM) | expression of ZO-1 ([2]; 10 μM) | cell adhesion [3] | number of dead cells versus control (corneoscleral tissues; 10 μM in Optisol-GS) | area of the unrepaired wound site (corneal endothelium wound area) ([1]; 0.32 mM instillation) | area of the unrepaired wound site (corneal endothelium wound area) ([1]; 0.95 mM instillation) | wound area compared to the PBS instillation group ([1]; 0.95 mM instillation, Dunnett's test) | coverage of the sheet with cells ([2]; 0.95 μM) | expression of Na+/K+ ATPase ([2]; 0.95 μM) | expression of ZO-1 ([2]; 0.95 μM) | time in which a cultured corneal endothelial cell sheet for transplantation can be produced ([2]; from the addition to culture medium) | number of dead cells versus control (corneoscleral tissues; 0.95 μM in Optisol-GS, 2 weeks) | number of apoptotic cells versus control (corneoscleral tissues; 0.95 μM in Optisol-GS, 3 weeks) | number of dead cells versus control (corneoscleral tissues; 0.95 μM in Optisol-GS, 3 weeks) |
| --- | --- | --- | --- | --- | --- | --- | --- | --- | --- | --- | --- | --- | --- | --- | --- | --- |
| C[C@@H](N)[C@H]1CC[C@H](C(=O)Nc2ccncc2)CC1 [Y-27632, reference compound] | 1.1 mm^2 | partially uncovered with cells | found between cells in all | found between cells uniformly | promoting cell adhesion | only the number of dead cells decreased significantly |  |  |  |  |  |  |  |  |  |  |
| C[C@@H](N)c1ccc(C(=O)Nc2ccnc3[nH]ccc23)cc1.Cl [compound (I), (R)-(+)-N-(1H-pyrrolo[2,3-b]pyridin-4-yl)-4-(1-aminoethyl)benzamide monohydrochloride] |  |  |  |  |  |  | 1.1 mm^2 | 0.4 mm^2 | statistically significant decrease in the wound area | cells were adhered to the whole surface of the sheet | found between cells in all | found between cells uniformly | 48 h | decreased significantly | decreased significantly | decreased significantly |
